The values that follow come from ChEMBL document CHEMBL3352745, “Serotonin 5-HT6 receptor antagonists for the treatment of cognitive deficiency in Alzheimer's disease” (J Med Chem, 2014).

Each structure is given as a SMILES string. pIC50, pKi: −log10 of the molar value. Some results are limits rather than exact numbers.

Usually bioavailability stands for dose-corrected exposure relative to a reference, in per cent. For orientation: pKi means −log10 of the Ki, conventionally taken in molar units. For orientation: pIC50 means −log10 of the IC50, conventionally taken in molar units. The term half-life denotes the time in which the quantity being followed falls by half. Higher therefore signals slow decline.

Tested on in the first series: not listed separately
Kind of series: Ratio of drug level in brain to plasma in rat. Format: ADME. To be noted: brain and plasma, read-out: BPR.
Turning to `CN1CC=C(c2cn(S(=O)(=O)c3cccc4ccccc34)c3ccc(F)cc23)CC1`, the Kp came to 43.

As for `CN1CCC[C@@H]1Cc1cn(S(=O)(=O)c2ccccc2)c2ccc(Cl)cc12`, the Kp turned out to be 23.

Tested on in another series: not listed separately
Kind of series: Oral bioavailability in rat. Format: ADME, organism-based. To be noted: in vivo.
In the case of `CN1CC=C(c2cn(S(=O)(=O)c3cccc4ccccc34)c3ccc(F)cc23)CC1`, the bioavailability stood at 19%.

Compound `CN1CCC[C@@H]1Cc1cn(S(=O)(=O)c2ccccc2)c2ccc(Cl)cc12` returned a bioavailability of 17%.

As for `COc1ccc(NS(=O)(=O)c2sc3ccc(Cl)cc3c2C)cc1N1CCNCC1`, the bioavailability was over 80%.

Turning to `O=S(=O)(c1ccccc1)c1cnc2c(N3CCNCC3)cccc2c1` [INTEPIRDINE], the bioavailability was found to be 76%.

The target in the next series is T1, 5-hydroxytryptamine receptor 6 (Homo sapiens, UniProt P50406). Kind of series: Antagonist activity at human recombinant 5HT6 receptor expressed in CHO cells. The class given is cell-based.
T1 sequence (P50406 whole entry): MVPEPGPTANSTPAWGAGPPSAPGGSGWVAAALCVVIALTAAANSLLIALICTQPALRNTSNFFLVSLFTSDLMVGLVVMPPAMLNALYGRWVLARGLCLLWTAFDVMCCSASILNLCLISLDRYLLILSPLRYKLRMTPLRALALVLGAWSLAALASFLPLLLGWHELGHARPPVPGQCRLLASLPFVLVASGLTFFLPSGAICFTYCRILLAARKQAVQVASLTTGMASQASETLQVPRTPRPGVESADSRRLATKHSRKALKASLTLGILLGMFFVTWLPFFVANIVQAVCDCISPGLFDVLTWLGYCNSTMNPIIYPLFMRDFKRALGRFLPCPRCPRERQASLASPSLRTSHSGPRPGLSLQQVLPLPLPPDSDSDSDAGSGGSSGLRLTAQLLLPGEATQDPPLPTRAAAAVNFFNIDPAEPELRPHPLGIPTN
Conditions: not given
Turning to `CN1CC=C(c2cn(S(=O)(=O)c3cccc4ccccc34)c3ccc(F)cc23)CC1`, the pKi is 9.00.

With `COc1ccc(NS(=O)(=O)c2ccc(I)cc2)cc1N1CCNCC1`, the negative logarithm of the Ki (pKi) was 8.64.

With `O=S(=O)(c1cccc(Cl)c1)n1ccc2c(N3CCNCC3)c(Cl)ccc21`, the pKi is 9.52.

Regarding `O=S(=O)(Nc1ccc2c(c1)CNCCC2)c1csc(C(F)(F)F)c1-c1ccccc1`, the pKi is 7.49.

Regarding `COc1ccc(Cl)cc1NS(=O)(=O)c1ccc(OC)c2c1CC[C@H](N(C)C)C2`, the pKi is 8.77.

Regarding `Fc1ccc2c(c1)c(C1=CCNCC1)cn2Cc1ccccc1`, the pKi was 8.00.

`O=C(c1ccccc1)n1cc(C2=CCNCC2)c2cc(F)ccc21`: the negative-log Ki (pKi) was 7.00.

Consider `O=C(Nc1ccccc1)n1cc(C2=CCNCC2)c2cc(F)ccc21`, for which the negative-log Ki (pKi) was 6.93.

As for `CN1CCN(c2cccc3c(S(=O)(=O)c4ccccc4)c[nH]c23)CC1`, the pKi is 9.30.

On to `O=S(=O)(c1cccc(F)c1)c1c[nH]c2c(OCCN3CCCC3)cccc12`, for which the negative-log Ki (pKi) is 7.70.

As to `CN1CCC(c2cn(C)c3cc(OS(=O)(=O)c4c(F)cccc4F)ccc23)CC1`, the negative logarithm of the Ki (pKi) was 9.00.

For `Cc1cc(C)cc(S(=O)(=O)c2ccc3ccnc(N4CCNCC4)c3c2)c1`, the negative logarithm of the Ki (pKi) was 7.96.

On to `CSc1nn2c(N3CCNCC3)nc(C)nc2c1S(=O)(=O)c1ccccc1`, for which the negative-log Ki (pKi) is 8.92.

Regarding `O=c1n(C2=CCNCC2)c2ccccc2n1S(=O)(=O)c1ccc2ccccc2c1`, the pKi was 8.24.

In the case of `O=S(=O)(c1cccc(Cl)c1Cl)N1CCc2c(cccc2N2CCNCC2)C1`, the pKi was 10.40.

Take `COc1ccc(C)cc1S(=O)(=O)Nc1cc(OC2CCNCC2)c2occc2c1`: the pKi is 8.92.

As to `O=S(=O)(c1ccccc1)c1ccc2c(c1)OCCC2N1CCNCC1` (stereo unspecified), the pKi is 9.40.

For the compound `CNC[C@@H]1COc2ccc(S(=O)(=O)c3ccccc3)cc2O1`, the negative-log Ki (pKi) was 9.70.

Take `O=S(=O)(c1ccccc1)c1ccc(C2CCNCC2)c2ccccc12`: the pKi is 8.42.

`N=C(N)CCC1CCCc2cc(S(=O)(=O)c3ccccc3)ccc21` (stereo unspecified): the pKi was 7.23.

For the compound `CN1CCCC1Cc1c[nH]c2ccc(OC3CCCCC3)cc12` (stereo unspecified), the pKi is 9.03.

Consider `COc1cc(N2CCNCC2)c2ncc(C)c(Oc3ccccc3)c2c1`, for which the pKi was 9.00.

In the case of `COc1cc(Cn2c(=O)ccc3cccc(OC)c32)cc(N2CCNCC2)c1`, the negative-log Ki (pKi) is 9.05.

With `O=C1COc2c(N3CCNCC3)cccc2N1Cc1ccccc1`, the pKi was 9.70.

Turning to `O=C1c2cccc(N3CCNCC3)c2Oc2ccc(F)cc2N1Cc1cccc(C(F)(F)F)c1`, the pKi is 9.52.

With `O=c1[nH]c2c(N3CCNCC3)cccc2n1Cc1ccccc1`, the pKi was 9.52.

Consider `Clc1ccc(-c2[nH]c3ccccc3c2/C=N/NC2=NCCN2)cc1`, for which the negative logarithm of the Ki (pKi) is 8.00.

In the case of `CC(Nc1ccc2c(c1)CCNCC2)c1ccccc1Cl` (stereo unspecified), the pKi was 7.85.

With `Cc1c(S(=O)(=O)Nc2cc3c(c(N4CCN(C)CC4)c2)OCC3)sc2ccc(Cl)cc12`, the pKi was 8.80.

For the compound `CN1CC2c3ccccc3Oc3ccc(Cl)cc3C2C1` (stereo unspecified) [ASENAPINE], the pKi was 9.60.

The next series deals with T1, 5-hydroxytryptamine receptor 6. Kind of series: Inhibition of human recombinant 5HT6 receptor expressed in CHO cells. Format: cell-based.
Conditions: not given
As to `CN1CC=C(c2cn(S(=O)(=O)c3cccc4ccccc34)c3ccc(F)cc23)CC1`, the pIC50 is 7.62.

Consider `Nc1ccc(S(=O)(=O)c2cc(Br)nc(N3CCCC3)c2)cc1`, for which the negative logarithm of the IC50 (pIC50) was 8.49.

On to `COc1ccc(NS(=O)(=O)c2ccc(Br)cc2)cc1N1CCN(C)CC1`, for which the negative logarithm of the IC50 (pIC50) was 7.80.

As for `CN1CCC[C@@H]1Cc1cn(S(=O)(=O)c2ccccc2)c2ccc(Cl)cc12`, the pIC50 was 8.07.

Tested on in another series: not listed separately
The series can be described thus: Half life in rat. Format: ADME, organism-based. To be noted: in vivo.
Compound `COc1ccc(NS(=O)(=O)c2sc3ccc(Cl)cc3c2C)cc1N1CCNCC1` had a half-life of 4.8 h.
